Data published in the supplement of paper PMC4862054.

What was measured:
Conditions in all cases: incubation time: 72 h
CAL-120 [1] = experiment: normalised response (% of control), CellTox Green; higher = less cell death (100 = DMSO, 0 = benzethonium chloride kill control)
Method in brief: (§1)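 Breast cancer cell lines in 20 µl suspension were added to 384-well plates containing compound at 5 concentrations, spaced in 10-fold steps across a 10,000-fold range chosen for each compound, and incubated for 72 h. CellTox Green fluorescence was read at 485/520 nm, followed by CellTiter-Glo luminescence after 10 min at room temperature. Signals on each plate were normalised so that 0.1 % DMSO equals 100 and a positive kill control equals 0. Every value in the table is the normalised signal at one concentration of the series.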

MDA-MB-231 [2] = experiment: as above
Method in brief: as §1

MDA-MB-468 [3] = experiment: as above
Method in brief: as §1

MDA-MB-436 [4] = experiment: as above
Method in brief: as §1

MCF-10A [5] = experiment: as above
Method in brief: as §1

CAL-51 [6] = experiment: as above
Method in brief: as §1

BT-549 [7] = experiment: as above
Method in brief: as §1

MDA-MB-453 [8] = experiment: as above
Method in brief: as §1

DU-4475 [9] = experiment: as above
Method in brief: as §1

HCC1599 [10] = experiment: as above
Method in brief: as §1

BT-474 [11] = experiment: as above
Method in brief: as §1

HCC1937 [12] = experiment: as above
Method in brief: as §1

HDQ-P1 [13] = experiment: as above
Method in brief: as §1

MFM-223 [14] = experiment: as above
Method in brief: as §1

CAL-85-1 [15] = experiment: as above
Method in brief: as §1

Hs578T [16] = experiment: as above
Method in brief: as §1

CAL-148 [17] = experiment: as above
Method in brief: as §1

HCC1143 [18] = experiment: as above
Method in brief: as §1

CAL-120 [19] = experiment: normalised response (% of control), CellTiter-Glo; higher = more viable cells (100 = DMSO, 0 = benzethonium chloride kill control)
Method in brief: as §1

MDA-MB-231 [20] = experiment: as above
Method in brief: as §1

MDA-MB-468 [21] = experiment: as above
Method in brief: as §1

MDA-MB-436 [22] = experiment: as above
Method in brief: as §1

MCF-10A [23] = experiment: as above
Method in brief: as §1

CAL-51 [24] = experiment: as above
Method in brief: as §1

SK-BR-3 = experiment: as above
Method in brief: as §1

BT-549 [25] = experiment: as above
Method in brief: as §1

MDA-MB-453 [26] = experiment: as above
Method in brief: as §1

DU-4475 [27] = experiment: as above
Method in brief: as §1

HCC1599 [28] = experiment: as above
Method in brief: as §1

BT-474 [29] = experiment: as above
Method in brief: as §1

HCC1937 [30] = experiment: as above
Method in brief: as §1

HDQ-P1 [31] = experiment: as above
Method in brief: as §1

MFM-223 [32] = experiment: as above
Method in brief: as §1

CAL-85-1 [33] = experiment: as above
Method in brief: as §1

Hs578T [34] = experiment: as above
Method in brief: as §1

CAL-148 [35] = experiment: as above
Method in brief: as §1

HCC1143 [36] = experiment: as above
Method in brief: as §1

| SMILES | normalised response (CAL-120 [1]) [%] | normalised response (MDA-MB-231 [2]) [%] | normalised response (MDA-MB-468 [3]) [%] | normalised response (MDA-MB-436 [4]) [%] | normalised response (MCF-10A [5]) [%] | normalised response (CAL-51 [6]) [%] | normalised response (BT-549 [7]) [%] | normalised response (MDA-MB-453 [8]) [%] | normalised response (DU-4475 [9]) [%] | normalised response (HCC1599 [10]) [%] | normalised response (BT-474 [11]) [%] | normalised response (HCC1937 [12]) [%] | normalised response (HDQ-P1 [13]) [%] | normalised response (MFM-223 [14]) [%] | normalised response (CAL-85-1 [15]) [%] | normalised response (Hs578T [16]) [%] | normalised response (CAL-148 [17]) [%] | normalised response (HCC1143 [18]) [%] | normalised response (CAL-120 [19]) [%] | normalised response (MDA-MB-231 [20]) [%] | normalised response (MDA-MB-468 [21]) [%] | normalised response (MDA-MB-436 [22]) [%] | normalised response (MCF-10A [23]) [%] | normalised response (CAL-51 [24]) [%] | normalised response (SK-BR-3) [%] | normalised response (BT-549 [25]) [%] | normalised response (MDA-MB-453 [26]) [%] | normalised response (DU-4475 [27]) [%] | normalised response (HCC1599 [28]) [%] | normalised response (BT-474 [29]) [%] | normalised response (HCC1937 [30]) [%] | normalised response (HDQ-P1 [31]) [%] | normalised response (MFM-223 [32]) [%] | normalised response (CAL-85-1 [33]) [%] | normalised response (Hs578T [34]) [%] | normalised response (CAL-148 [35]) [%] | normalised response (HCC1143 [36]) [%] |
| --- | --- | --- | --- | --- | --- | --- | --- | --- | --- | --- | --- | --- | --- | --- | --- | --- | --- | --- | --- | --- | --- | --- | --- | --- | --- | --- | --- | --- | --- | --- | --- | --- | --- | --- | --- | --- | --- |
| CCn1c(-c2nonc2N)nc2cnc(Oc3cccc(NC(=O)c4ccc(OCCN5CCOCC5)cc4)c3)cc21 (1000 nM) | 99 | 79.5 | 111 | 88.7 | 104 | 79.7 | 113 | 98.7 | 95.2 | 95 | 101 | 73.9 | 107 | 101 | 109 | 96.5 | 83.5 | 95.2 | 72.6 | 80.5 | 83 | 98.1 | 75.9 | 83.2 | 81.8 | 73.1 | 95.6 | 91.8 | 91.3 | 82.6 | 98.2 | 89.9 | 94.2 | 102 | 73.5 | 86.7 | 97.9 |
| COc1cc(O)c2c(c1)/C=C/C[C@H](O)[C@H](O)C(=O)/C=C\C[C@H](C)OC2=O [(5Z)-7-Oxozeaenol] (1000 nM) | 102 | 57.4 | 140 | 112 | 103 | 115 | 79.5 | 103 | 74.4 | 103 | 99 | -12.2 | 66.1 | – | 35.6 | 64.6 | 15.5 | 129 | 94.2 | 72 | 56.5 | 81.3 | 56.9 | 106 | 115 | 40.3 | 118 | 8.27 | 92 | 71.5 | 76.1 | 71.5 | 90.4 | 42.8 | 91.1 | 79.5 | 96.9 |
| CNC(=O)c1cccc(-c2ccc3c(N4CCOC[C@@H]4C)nc(N4CCOC[C@@H]4C)nc3n2)c1 [AZD2014] (1000 nM) | 105 | 104 | 132 | 82.4 | 104 | 92.3 | 104 | 102 | 102 | 92.1 | 96.9 | 70.8 | 100 | 61.1 | 104 | 102 | 46.1 | 97.5 | 32.5 | 57.8 | 43.3 | 51.6 | 46.5 | 28.8 | 24.3 | 34.5 | 39.8 | 67.9 | 98.5 | 59.5 | 56.7 | 40.2 | 33.7 | 36.9 | 43.6 | 35.1 | 36.9 |
| Nc1cc(C(F)(F)F)c(-c2cc(N3CCOCC3)nc(N3CCOCC3)n2)cn1 [Buparlisib] (1000 nM) | 100 | 80 | 165 | 90 | -21.3 | 107 | 113 | 98.9 | 95.6 | 95.4 | 94.7 | 96.8 | 98.7 | 97.5 | 106 | 107 | 91.7 | 95.9 | 88 | 90.3 | 82.9 | 102 | 55.6 | 90.4 | 84 | 89.6 | 99 | 82.9 | 102 | 99.8 | 89.5 | 70.9 | 53.3 | 95.1 | 91.1 | 96.2 | 94 |
| CCOC(=O)CCNc1cc(N2CCc3ccccc3CC2)nc(-c2ccccn2)n1 [GSK-J4] (10000 nM) | 87.7 | 57.7 | 40.1 | 88.8 | 89.3 | 52.1 | 81.8 | 88.5 | 79.9 | 80.2 | -18.4 | 100 | 49.9 | 76.9 | 2.31 | -14.7 | 53.5 | 68.1 | 61.7 | 30.7 | 12.7 | 22.8 | 45.2 | 12.2 | 57.2 | 20.8 | 33.1 | 30.6 | 45.9 | 44.7 | 49.4 | 56.3 | 42.3 | 20.1 | 59.3 | 10.1 | 41.2 |
| Cc1cc(Nc2cc(CN3CCOCC3)c3nc(C)c(Cc4ccc(Cl)cc4F)n3n2)n[nH]1 [Gandotinib] (1000 nM) | 97.4 | 101 | 99.5 | 66.1 | 90.8 | 71.4 | 119 | 107 | 102 | 104 | 104 | 101 | 105 | 33 | 78.5 | 101 | 104 | 97 | 90.4 | 70.7 | 53.1 | 86.4 | 96.6 | 55 | 82.4 | 77 | 107 | 99.9 | 124 | 75.8 | 96.7 | 90 | 69.7 | 78.1 | 86.7 | 96.7 | 88.6 |
| COc1cc2c(NC3CCN(C(C)C)CC3)nc(N3CCC(F)(F)CC3)nc2cc1OCCCN1CCCC1 [UNC0642] (1000 nM) | 96.9 | 92.8 | 146 | 61.8 | 90.6 | 98 | 86.2 | 102 | 96.4 | 97.6 | 97.4 | 108 | 104 | 88.9 | 97.7 | 67.8 | 94.5 | 102 | 89 | 95.4 | 85.9 | 90.9 | 84.6 | 108 | 96.4 | 92.4 | 94.6 | 98.7 | 93.1 | 109 | 94 | 99.7 | 91.2 | 93.2 | 100 | 89.1 | 91.2 |
